Results reported in patent US20070031480A1, “Enhanced delivery of sphingolipids” (priority 2003, published 2007).

How the values were obtained:
[1] = test system: J774 murine macrophage cells; assay: MTT cytotoxicity assay of free ceramide and liposomes, 72 hours; assay type: cell-based; details: liposome concentration corrected for ceramide content
Method: (§1) Human estrogen receptor negative MDA435/LCC6 wild-type and MDR-1 gene transfected MDA435/LCC6^MDR1 multidrug resistant breast cancer cell lines were obtained from Dr. Robert Clark, Georgetown University, Washington, D.C. J774 murine macrophage cells were obtained from ATCC (Rockville, Md.). All cells were grown as adherent monolayer cultures in 25-cm^2 Falcon flasks in DMEM supplemented with 10% fetal bovine serum and 1% L-glutamine. Cells were maintained at 37° C. in humidified air with 5% CO2. Cells were sub-cultured weekly using 0.25% trypsin with 1 mM EDTA (MDA435/LCC6) or gentle cell scraping (J774).
(§2) Cell suspensions were diluted 1:1 with trypan blue, counted with a hemocytometer and seeded into 96-well microtitre plates at […] in 0.2 ml complete medium. […] After 72 hours the cell viability was assessed using a conventional 3-(4,5-dimethylthiazol-2-yl)-2,5-diphenyl tetrazolium bromide (MTT) dye reduction assay. […] The formazan dye was measured spectrophotometrically using a Dynex plate reader (570 nm). […] The cytotoxic effect of each treatment was expressed as percent cell viability relative to untreated control cells (% control) and is defined as: [(Abs570 treated cells)/( Abs570 control cells)]×100.
The inventors next determined whether the stable formulation of C16-ceramide into CHEMS liposomes translated into enhanced cytotoxicity in vitro. […]

[2] = test system: MDA435/LCC6 wild-type and MDR-1 gene transfected MDA435/LCC6MDR1 breast cancer cells; assay: MTT cytotoxicity assay of free ceramides, 72 hours; assay type: cell-based, human; details: free ceramide, wild-type and MDR1 MDA435/LCC6 cells, not separated
Method: as §1
as §2, with “medium. The perimeter wells were not used and contained 0.2 ml sterile water.” for “medium.”, “cells)]×100. […]” for “cells)]×100.”

SMILES | IC50 [1] | IC50 [2]
CCCCCCCCCCCCC/C=C/[C@@H](O)[C@H](CO)NC(=O)CCCCC [C6-ceramide] | 14.4 µM | 
CCCCCCCCCCCCC/C=C/[C@@H](O)[C@H](CO)NC(=O)CCCCCCCCC [C10-ceramide] |  | ~45 µM
CCCCCCCCCCCCC/C=C/[C@@H](O)[C@H](CO)NC(=O)CCCCCCCCCCCCCCC [C16-ceramide] | > 100 µM | 
